# How the values were obtained:
# [1] = target: T1, mKCC4 (Mus musculus, UniProt Q9WVL3); assay: 86Rb+ uptake (K+-Cl- cotransport) in Xenopus oocytes injected with mKCC4 cRNA; assay type: cell-based; settings: 10 mM potassium salt of anion substitute vs 10 mM KCl reference; hypotonic
# T1 construct: a full-length mKCC4 cDNA was used as a standard in the Xenopus expression vector pGEMHE; expressed in transfected cells; host or cells: Xenopus laevis oocytes injected with cRNA (pGEMHE, T7 transcript)
# T1 sequence (Q9WVL3 1-1083 L71X/L155X/L467X/L586X/L639X/L1023X): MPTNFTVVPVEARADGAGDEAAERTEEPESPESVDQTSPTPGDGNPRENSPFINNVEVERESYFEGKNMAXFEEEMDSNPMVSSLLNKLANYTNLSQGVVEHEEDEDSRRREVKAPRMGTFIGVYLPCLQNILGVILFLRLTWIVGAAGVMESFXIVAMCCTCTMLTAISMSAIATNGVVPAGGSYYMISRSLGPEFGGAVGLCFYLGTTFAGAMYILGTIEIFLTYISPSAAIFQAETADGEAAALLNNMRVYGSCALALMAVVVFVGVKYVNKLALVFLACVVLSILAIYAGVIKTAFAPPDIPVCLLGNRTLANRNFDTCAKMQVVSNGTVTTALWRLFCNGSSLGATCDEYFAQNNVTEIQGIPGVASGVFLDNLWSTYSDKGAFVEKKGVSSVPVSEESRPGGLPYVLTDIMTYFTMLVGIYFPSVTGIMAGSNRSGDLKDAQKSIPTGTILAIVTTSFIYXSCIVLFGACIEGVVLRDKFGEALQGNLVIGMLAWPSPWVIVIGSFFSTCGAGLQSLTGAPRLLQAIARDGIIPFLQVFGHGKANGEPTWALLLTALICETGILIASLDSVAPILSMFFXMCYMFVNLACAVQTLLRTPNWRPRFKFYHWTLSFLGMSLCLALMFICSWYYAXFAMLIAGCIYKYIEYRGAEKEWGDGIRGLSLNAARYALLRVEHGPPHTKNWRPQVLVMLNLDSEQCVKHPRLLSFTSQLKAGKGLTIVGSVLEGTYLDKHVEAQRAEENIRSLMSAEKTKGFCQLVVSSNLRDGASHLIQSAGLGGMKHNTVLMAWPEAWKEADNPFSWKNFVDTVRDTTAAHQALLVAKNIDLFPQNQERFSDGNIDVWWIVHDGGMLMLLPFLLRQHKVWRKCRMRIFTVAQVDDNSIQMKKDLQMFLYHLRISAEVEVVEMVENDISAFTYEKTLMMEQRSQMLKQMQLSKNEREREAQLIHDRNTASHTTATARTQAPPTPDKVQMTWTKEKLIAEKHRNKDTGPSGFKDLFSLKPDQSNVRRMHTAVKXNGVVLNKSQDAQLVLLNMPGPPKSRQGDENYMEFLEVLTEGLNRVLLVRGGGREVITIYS
# Experimental: Oocytes were surgically collected from anesthetized female Xenopus adults under 0.17% tricaine and incubated for 1 hour with vigorous shaking in frog Ringer ND96 (96 mM sodium chloride, 2 mM potassium chloride, 1.8 mM calcium chloride, 1.0 mM magnesium chloride, and 5 mM Hepes/Tris, pH 7.4) in the presence of 2 mg/ml collagenase B. Oocytes were then washed four times in ND96, manually defolliculated, and incubated overnight in ND96 at 18° C. On the next day, defolliculated stage V–VI oocytes were injected with 50 nl of water or a solution containing cRNA at a concentration of 0.25–0.5 μg/μl (25 ng/oocyte). Oocytes were incubated at 17–18° C. in ND96 (96 mM sodium chloride, 2 mM potassium chloride, 1.8 mM calcium chloride, 1.0 mM magnesium chloride, and 5 mM Hepes/Tris, pH 7.4), supplemented with 2.5 mM sodium pyruvate and 5 mg/100 ml gentamicin, for 3–4 days. The incubation medium was changed every 24 hours. On the day of the experiment, oocytes were switched to Cl^−-free ND96 (96 mM Na^+ Na^+ isethionate, 2 mM K^+ gluconate, 6 mM Ca^2+ gluconate, 1 mM Mg^2+ gluconate, 5 mM Hepes, 2.5 mM sodium pyruvate, 5 mg/100 ml gentamicin, pH 7.4) for 2 hours prior to the uptake assay.
# For functional expression and in vitro translation, a full-length mKCC4 cDNA was used as a standard in the Xenopus expression vector pGEMHE (Liman et al. (1992) Neuron 9:861–871). The resulting construct contains nucleotides 55–3812 of mKCC4 (SEQ ID NO:13). For functional comparison with mKCC4, a full-length rabbit KCC1 cDNA was subcloned into pGEMHE. […] […] Transcription product integrity was confirmed on agarose gels, and concentration was determined by absorbance reading at 260 nm (DU 640 available from Beckman of Fullerton, Calif.).
# K^+—Cl^− cotransport was assessed by measuring tracer ^86Rb^+ uptake (NEN® Life Science Products of Boston, Mass.) in experimental groups of at least 15 oocytes. […] All uptake solutions also contained 1.8 mM CaCl2, 1 mM MgCl2, 5 mM Hepes, pH 7.4, and were supplemented with 1 mM ouabain and […] ^86Rb^+. Isotonic conditions were generated by supplementing the same solutions with 3.5 g/100 ml sucrose to reach isosmolar conditions for oocytes (˜210 mOsm/kg). Ouabain was added to prevent ^86Rb^+ uptake via the Na^+—K^+-ATPase. The absence of extracellular Na^+ and the hypotonicity of the uptake medium prevented ^86Rb^+ uptake via the endogenous Na^+—K^+-2Cl^− cotransporter that is present in oocytes (Gamba et al. (1994) J Biol Chem 269:17713–17722).
# All uptake assays were performed at 32° C. At the end of the uptake period, oocytes were washed five times in ice-cold uptake solution without isotope to remove extracellular fluid tracer. Oocytes were dissolved in 10% SDS, and tracer activity was determined for each oocyte by β-scintillation counting.
# To determine the ion transport kinetics of KCC4 and KCC1, ^86Rb^+ uptake experiments were performed in variable concentrations of K^+ and Cl^−. […]
# [2] = target: T2, hKCC3a (Homo sapiens, UniProt Q9UHW9, L346X/L35X/L789X); assay: 86Rb+ uptake (K+-Cl- cotransport) in Xenopus oocytes injected with hKCC3a cRNA; assay type: cell-based
# T2 construct: A full-length hKCC3a construct has also been generated for functional expression; expressed in transfected cells; host or cells: Xenopus laevis oocytes injected with cRNA
# T2 sequence (Q9UHW9 1-1150 L35X/L346X/L789X): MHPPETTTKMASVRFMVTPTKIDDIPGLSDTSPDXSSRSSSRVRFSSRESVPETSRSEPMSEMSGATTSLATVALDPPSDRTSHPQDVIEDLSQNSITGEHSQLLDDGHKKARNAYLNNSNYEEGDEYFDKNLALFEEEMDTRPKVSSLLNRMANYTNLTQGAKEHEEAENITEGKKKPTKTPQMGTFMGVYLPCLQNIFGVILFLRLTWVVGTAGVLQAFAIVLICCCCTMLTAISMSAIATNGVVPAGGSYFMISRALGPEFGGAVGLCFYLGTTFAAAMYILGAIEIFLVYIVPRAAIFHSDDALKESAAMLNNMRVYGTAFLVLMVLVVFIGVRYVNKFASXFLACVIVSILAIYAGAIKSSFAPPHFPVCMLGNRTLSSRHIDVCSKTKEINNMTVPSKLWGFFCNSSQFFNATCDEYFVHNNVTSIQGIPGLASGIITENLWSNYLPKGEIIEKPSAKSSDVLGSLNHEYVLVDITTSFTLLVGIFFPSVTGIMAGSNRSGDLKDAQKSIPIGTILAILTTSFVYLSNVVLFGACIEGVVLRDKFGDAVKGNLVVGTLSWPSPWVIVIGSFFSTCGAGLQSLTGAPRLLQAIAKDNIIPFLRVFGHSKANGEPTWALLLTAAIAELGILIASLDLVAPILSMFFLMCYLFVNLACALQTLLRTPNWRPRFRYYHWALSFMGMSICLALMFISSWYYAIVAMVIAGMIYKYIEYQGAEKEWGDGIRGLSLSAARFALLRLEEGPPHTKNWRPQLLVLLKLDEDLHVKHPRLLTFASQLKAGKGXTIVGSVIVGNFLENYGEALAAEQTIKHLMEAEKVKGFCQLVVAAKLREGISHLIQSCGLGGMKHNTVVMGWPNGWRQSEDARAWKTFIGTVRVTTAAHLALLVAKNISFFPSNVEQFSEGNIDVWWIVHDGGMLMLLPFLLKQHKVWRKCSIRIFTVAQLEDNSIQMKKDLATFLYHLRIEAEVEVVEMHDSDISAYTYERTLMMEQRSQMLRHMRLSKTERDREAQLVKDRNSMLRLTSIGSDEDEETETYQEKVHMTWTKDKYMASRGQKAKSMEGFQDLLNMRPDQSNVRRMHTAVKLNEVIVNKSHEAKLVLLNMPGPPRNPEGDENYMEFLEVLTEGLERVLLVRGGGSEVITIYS
# [3] = test system: human red cell K^+—Cl^− cotransport; settings: ML-7; physiological osmolality; cited from earlier work
# [4] = test system: KCC2^+/− heterozygous and wild type mice; assay: PTZ seizure induction in wild type and KCC2+/- mice; assay type: in vivo, mouse; settings: daily 60 mg/kg PTZ
# Experimental: A reduced threshold for induction of seizure activity was also observed in KCC2^+/− heterozygous mice. Seizures were induced in wild type and litter-matched KCC2^+/− mice by daily injections of 60 mg/kg pentylenetetrazole (PTZ), a blocker of the GABAA receptor. Animal behavior was observed during a one-hour interval following PTZ injection, and the severity of seizure induction was scored according to the following indicators: score=0, absence of seizure acitivity; score=1, ear and facial twitching; score=2, myoclonic body jerks; score=3, clonic forelimb convulsions […]; score=5, death. Mice assigned a score of 3, 4, or 5 were removed from the group. FIG. 34 summarizes the number of mice assigned a score of 1 or 2 as a function of time. A significant difference between wild type and KCC2^+/− heterozygous mice was observed, corresponding to an approximately 2-fold increase in the susceptibility of KCC2^+/− heterozygous mice to seizure activity.
structure (smiles),measurement,setting,value
[Br-].[K+] [KBr],"86Rb+ influx in the presence of other anions, percentage of KCC4 function",[1],58±9%
O=P([O-])(O)O.[K+] [KH2PO4],"86Rb+ influx in the presence of other anions, percentage of KCC4 function",[1],22±5.9%
[I-].[K+] [KI],"86Rb+ influx in the presence of other anions, percentage of KCC4 function",[1],17±3.8%
N#C[S-].[K+] [KSCN],"86Rb+ influx in the presence of other anions, percentage of KCC4 function",[1],did not support transport
O=S(=O)(c1cccc2c(I)cccc12)N1CCCNCC1 [ML-7],K+-Cl- cotransport (86Rb+ uptake) by KCC3a in the presence of ML-7,"[2]; 100 μM ML-7, 160 mOsm/kg",1698±298 pmol/oocyte/hour
same,effect on hKCC3a K+-Cl- cotransport,"[2]; ML-7, 180 mOsm/kg",modest activation
same,effect on K+-Cl- cotransport,"[2]; ML-7, isotonic conditions",no effect
same,effect on human red cell K+-Cl- cotransport,[3],modest activation
"C1CCc2nnnn2CC1 [PTZ, pentylenetetrazole]",percentage of deaths in response to PTZ injection,[4]; KCC2+/− heterozygous mice,Approximately 35%
same,percentage of deaths in response to PTZ injection,[4]; wild type mice,< 5%
O=C([O-])[C@H](O)[C@@H](O)[C@H](O)[C@H](O)CO.[K+] [potassium gluconate],"86Rb+ influx in the presence of other anions, percentage of KCC4 function",[1],did not support transport
